The text below walks through data of patent US20210009551A1, “COMPOUNDS AND METHODS FOR TREATING FIBROSIS OR CANCER” (THE REGENTS OF THE UNIVERSITY OF CALIFORNIA, priority 2016, published 2021).

In general, IC50 refers to the point on the concentration scale where inhibition reaches its midpoint.

The target of one data set is T1, human LOXL2 (Homo sapiens, UniProt Q9Y4K0).
T1 sequence (Q9Y4K0 26-774): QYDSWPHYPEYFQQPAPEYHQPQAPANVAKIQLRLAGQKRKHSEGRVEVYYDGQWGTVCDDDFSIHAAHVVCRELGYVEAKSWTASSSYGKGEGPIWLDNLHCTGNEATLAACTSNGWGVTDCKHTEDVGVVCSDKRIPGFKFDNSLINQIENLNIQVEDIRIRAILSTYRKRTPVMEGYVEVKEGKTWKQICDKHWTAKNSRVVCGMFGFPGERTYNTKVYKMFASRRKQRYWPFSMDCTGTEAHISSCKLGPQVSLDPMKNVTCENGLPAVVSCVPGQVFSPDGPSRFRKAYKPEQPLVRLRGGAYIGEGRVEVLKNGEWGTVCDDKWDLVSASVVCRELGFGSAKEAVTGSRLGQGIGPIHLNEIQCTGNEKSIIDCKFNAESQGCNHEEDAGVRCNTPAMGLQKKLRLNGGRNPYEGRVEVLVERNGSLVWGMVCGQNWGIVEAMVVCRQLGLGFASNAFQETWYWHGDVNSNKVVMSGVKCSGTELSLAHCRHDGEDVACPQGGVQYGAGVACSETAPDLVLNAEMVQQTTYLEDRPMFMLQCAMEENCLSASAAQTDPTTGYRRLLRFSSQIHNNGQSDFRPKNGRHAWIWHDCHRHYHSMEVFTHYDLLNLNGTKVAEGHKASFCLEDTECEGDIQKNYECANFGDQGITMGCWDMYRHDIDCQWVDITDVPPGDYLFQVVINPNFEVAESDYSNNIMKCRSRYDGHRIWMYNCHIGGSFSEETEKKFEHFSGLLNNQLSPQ
In words: Collagen crosslinking induced by recombinant LOXL2 in lung fibroblasts (Sircol assay). The following applies: primary human lung fibroblasts, 7 days. Format: cell-based. The protocol: Preparation of insoluble cross-linked collagen. Fibroblasts were cultured on 10 cm dish until confluent. The medium was then changed to Dulbecco's modified Eagle's medium (DMEM) containing 5% FBS, 100 μM L-ascorbic acid with 500 kDa Dextran Sulfate at 100 μg/ml, and 50 ng/ml recombinant human LOXL2 (rhLOXL2) for 7 days^21,22. The cell layer was extracted with 0.5 M acetic acid and 0.1 mg/ml pepsin overnight at 4° C. The leftover insoluble fraction was further extracted and the insoluble cross-linked collagen measured using Sircol Insoluble Collagen Assay kit according to manufacture's instruction.

The test system of data set [1] is urinary DPD/PYD after bleomycin. In words: Urinary PYD/DPD measurements. The following applies: 100 mg/kg from day 10. The data set is classed as in vivo, mice. The protocol: Urinary PYD/DPD measurements. Pooled urine from each of 3-5 mice for each time point after bleomycin in a cohort of mice treated with vehicle or corilagin (100 mg/kg) beginning on day 10 post bleomycin were collected. Urine specimens were also collected from two cohorts of IPF patients and controls at two sites: All consenting patients with physician-established diagnosis of IPF followed in the respective ILD programs were included in sample collection. PYD/DPD levels from all the samples were measured using MicroVue EIA Assay Kit (Quidel Corp., San Diego, Calif.) along with PYD/DPD standards and the results were normalized relative to urinary creatinine. The statistical significance was analyzed using Mann-Whitney U-Test.

Another data set relates to LOXL2-high A549 cells. The data set is described as follows: Corilagin level in conditioned medium by LC-MS, A549. The data set is classed as in vitro ADME. The following applies: 1 μM, 5 hrs.
In another data set the test system is LOXL2-low HaCaT cells. In words: Corilagin level in conditioned medium by LC-MS, HaCaT. Format: in vitro ADME. The following applies: 1 μM, 5 hrs.
Data set [2] has as its system TGFβ1 signaling (p-smad3, snail 1). In words: TGFβ1 signaling in NMuMG cells expressing wild-type or mutant LOXL2. Format: cell-based. The following applies: 1 μM. The protocol: Immunoblot. Pulverized tissue and cells were lysed in RIP A buffer (150 mM NaCl, 50 mM Tris, pH 8.0, 1% Triton X-100, 0.5% sodium deoxycholate, 0.1% SDS, supplemented with protease and phosphatase inhibitors) and analyzed by immunoblotting. Densitometry was quantified using NIH Imaged software.
Site-directed mutagenesis of LOXL2. Site-directed mutagenesis was performed to generate K614N, K731R, and K759R point mutations using Phusion Site-Directed Mutagenesis Kit (Thermo Scientific, Waltham, Mass.) according to manufacturer's instructions. A pcDNA3-hLOXL2-flag plasmid containing the cDNA fragment of wild-type human LOXL2 fused with a flag tag at the C-terminus, was used as the template DNA^18. Mutations were confirmed by DNA sequencing. The primers and their complementary strands used are: K614N forward 5′-[…]-3′ (SEQ ID NO:2), K614N reverse 5′-[…]-3′(SEQ ID NO:3); K731R forward 5′-[…]-3′(SEQ ID NO:4), K731R reverse 5′-[…]-3′(SEQ ID NO:5); K759R forward 5′-[…]-3′(SEQ ID NO:6), and K759R reverse 5′-[…]-3′(SEQ ID NO:7).

The nature of the next data set: Solubility (statement). Format: physicochemical.

As to `O=C(O[C@@H]1O[C@@H]2COC(=O)c3cc(O)c(O)c(O)c3-c3c(cc(O)c(O)c3O)C(=O)O[C@H]([C@H]1O)[C@@H]2O)c1cc(O)c(O)c(O)c1` [corilagin, Corilagin], the IC50 at human LOXL2 came out at 0.01 µM. Also, in data set [1], the “increase of urinary DPD/PYD levels days 10-21 post bleomycin” value is listed as “suppressed”. Moreover, the “corilagin concentration in conditioned medium” value in the data set with LOXL2-high A549 cells is listed as “decreased dramatically”; in the data set on LOXL2-low HaCaT cells it was “not”. Also, the “inhibition of TGFβ1 signaling in cells expressing K731R LOXL2” value in data set [2] is “completely resistant”. Besides, the solubility result in “Solubility (statement)” is listed as “more soluble”.
